Holding throughout (type): in vivo
Assay [1] has as its system wheat (Triticum aestivum L.), TRZAX. As to the kind of experiment: Test Example 2 post-emergence (foliage treatment) herbicidal activity, TRZAX. The conditions noted are these: 63 g a.i./ha. In outline:
(§1)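 Foliar spray of formulated compound (500 L/ha dilution water, 0.1% v/v spreader) onto young potted plants at defined leaf stages. Scored 0-100% by visual inspection 20-23 d post-spray.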

In assay [2] the test system is velvetleaf (Abutilon theophrasti), ABUTH. As to the kind of experiment: Test Example 2 post-emergence (foliage treatment) herbicidal activity, ABUTH. Particulars: 63 g a.i./ha. Summed up: as §1
Assay [3] concerns common cocklebur (Xanthium strumarium L.), XANST. As to the kind of experiment: Test Example 2 post-emergence (foliage treatment) herbicidal activity, XANST. Particulars: 63 g a.i./ha. The text has this:
Upland field soil was put into a 1/170,000 ha pot, and seeds of various plants were sown. Then, when the plants reached predetermined leaf stages {1. barnyardgrass (Echinochloa crus-galli L.), ECHCG: 1.1-2.1 leaf stage, 2. crabgrass (Digitaria sanguinalis L.), DIGSA: 1.0-2.0 leaf stage, 3. green foxtail (Setaria viridis L.), SETVI: 1.0-2.2 leaf stage, 4. redroot pigweed (Amaranthus retroflexus L.), AMARE: 0.1-1.5 leaf stage, 5. prickly sida (Sida spinosa L.), SIDSP: 0.1-0.6 leaf stage, 6. velvetleaf (Abutilon theophrasti), ABUTH: 0.1-0.6 leaf stage, 7. common cocklebur (Xanthium strumarium L.), XANST: 0.1 leaf stage, 8. rice (Oryza sativa L.), ORYSA; 1.0-2 leaf stage, 9. wheat (Triticum aestivum L.), TRZAX: 2.3-3.5 leaf stage, 10. corn (Zea mays L.), ZEAMXN 2.1-2.6 leaf stage, 11. soybean (Glycine max Merr.), GLXMA: primary leaf stage}, a wettable powder or emulsifiable concentrate having the compound of the present invention formulated in accordance with a usual formulation method, was weighed so that the active ingredient would be a predetermined amount, and diluted with water in an amount of 500 L/ha. To the diluted solution, 0.1% (v/v) of an agricultural spreader was added. The herbicide adjusted was applied by a small size sprayer for foliage treatment. On the 20th to 23rd day after the application of the herbicide, the growth of the respective plants was visually observed, and the herbicidal effects were evaluated by growth controlling degrees (%) ranging from 0 (equivalent to the untreated control) to 100 (complete kill), whereby the results shown in Table 5, were obtained. Compound Nos. in Table 5 correspond to Compound Nos. in Table 1 and 2 given hereinbefore.

Assay [4] concerns rice (Oryza sativa L.): ORYSA. Briefly: Test Example 1 pre-emergence herbicidal activity, ORYSA. Particulars: Rate 63 g a.i./ha, visually observed 20th to 23rd day after application. Summed up: (§2)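 Upland soil pot test. Formulated compound (wettable powder or emulsifiable concentrate) in water, 500 L/ha, sprayed one day after sowing before emergence; % control rated by eye on day 20–23.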

For assay [5], the system named is crabgrass (Digitaria sanguinalis L.), DIGSA. Briefly: Test Example 2 post-emergence (foliage treatment) herbicidal activity, DIGSA. The conditions noted are these: 63 g a.i./ha. Summed up: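 Leaf stages at treatment differed per species: 1.1-2.1 for ECHCG, 1.0-2.0 for DIGSA, 0.1-1.5 for AMARE and 1.0-2 for ORYSA. Plants grew in pots of upland soil and were sprayed with wettable powder or emulsifiable concentrate in water (500 L/ha) plus spreader at 0.1% (v/v). Visual % control followed on days 20-23.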

In assay [6] the test system is crabgrass (Digitaria sanguinalis L.): DIGSA. Briefly: Test Example 1 pre-emergence herbicidal activity, DIGSA. The conditions noted are these: Rate 63 g a.i./ha, visually observed 20th to 23rd day after application. Summed up:
as §2

The subject of assay [7] is corn (Zea mays L.): ZEAMX. Briefly: Test Example 1 pre-emergence herbicidal activity, ZEAMX. Particulars: Rate 63 g a.i./ha, visually observed 20th to 23rd day after application. In outline: as §2
Assay [8] relates to redroot pigweed (Amaranthus retroflexus L.): AMARE. As to the kind of experiment: Test Example 1 pre-emergence herbicidal activity, AMARE. The conditions noted are these: Rate 63 g a.i./ha, visually observed 20th to 23rd day after application. Summed up: as §2
The subject of assay [9] is corn (Zea mays L.), ZEAMX. Briefly: Test Example 2 post-emergence (foliage treatment) herbicidal activity, ZEAMX. Particulars: 63 g a.i./ha. Summed up: as §1
In assay [10] the test system is velvetleaf (Abutilon theophrasti): ABUTH. As to the kind of experiment: Test Example 1 pre-emergence herbicidal activity, ABUTH. Particulars: Rate 63 g a.i./ha, visually observed 20th to 23rd day after application. In outline:
as §2

The test system of assay [11] is barnyardgrass (Echinochloa crus-galli L.): ECHCG. Briefly: Test Example 1 pre-emergence herbicidal activity, ECHCG. The conditions noted are these: Rate 63 g a.i./ha, visually observed 20th to 23rd day after application. In outline:
as §2

Assay [12] relates to rice (Oryza sativa L.: ORYSA). Briefly: Test Example 3 water application herbicidal activity (paddy), transplanted rice ORYSA. The conditions noted are these: 63 g a.i./ha, water application 4th day after transplantation of 2 leaf stage rice, visually observed 21st day after application; 0 = untreated control, 100 = complete kill. In outline: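 Flooded paddy-soil pots in greenhouse; ECHOR and SCPJO sown, SAGPY tubers planted a day later, compound applied into 3–4 cm water at weeds' 0.5-leaf stage. Rice transplanted at 2-leaf stage, treated day 4 after transplanting. Visual growth control 0–100% at 14 days (weeds) and 21 days (rice) after application.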

This is an account of results in patent US20050245399A1, “Pyrazole derivatives as herbicidal compositions containing them” (ISHIHARA SANGYO KAISHA, LTD., priority 2004, published 2005).

For the molecule `COc1c(Cl)cc(F)c(-c2nn(C)c(OC(F)F)c2Cl)c1N(C)C=O` [Compound 1-6], the “growth controlling degree, TRZAX” value in assay [1] is reported as 30%. In assay [2], the “growth controlling degree, ABUTH” value came out at 100%. For the same molecule, the “growth controlling degree, XANST” value in assay [3] is recorded as 95%. The “Pre-emergence Herbicidal Activity ORYSA (growth controlling degree)” value (“Pre-emergence Herbicidal Activity ORYSA” below) in assay [4] is 20%. Moreover, in assay [5], the “growth controlling degree, DIGSP” value amounted to 70%. In addition, the “Pre-emergence Herbicidal Activity DIGSP (growth controlling degree)” value (“Pre-emergence Herbicidal Activity DIGSP” for short) in assay [6] came to 100%. In [7], the “Pre-emergence Herbicidal Activity ZEAMX (growth controlling degree)” value (from here on “Pre-emergence Herbicidal Activity ZEAMX”) was 30%. Besides, the “Pre-emergence Herbicidal Activity AMARE (growth controlling degree)” value (from here on “Pre-emergence Herbicidal Activity AMARE”) in assay [8] was found to be 100%. In addition, the “growth controlling degree, ZEAMX” value in [9] came to 30%. Further, the “Pre-emergence Herbicidal Activity ABUTH (growth controlling degree)” value (from here on “Pre-emergence Herbicidal Activity ABUTH”) in assay [10] was determined as 50%. Also, the “Pre-emergence Herbicidal Activity ECHCG (growth controlling degree)” value (from here on “Pre-emergence Herbicidal Activity ECHCG”) in assay [11] is recorded as 20%. Also, in [12], the “growth controlling degrees (%) ORYSA” value is 50%.

As for `COc1c(Cl)cc(F)c(-c2nn(C)c(OC(F)F)c2Cl)c1NC(=O)C=C(C)C` [Compound 1-9], in assay [1], the “growth controlling degree, TRZAX” value was 40%. Also, the “growth controlling degree, ABUTH” value in assay [2] amounted to 100%. Moreover, the “growth controlling degree, XANST” value in [3] worked out at 70%. Moreover, the “Pre-emergence Herbicidal Activity ORYSA” value in assay [4] is on record as 80%. Also, in [5], the “growth controlling degree, DIGSP” value was 98%. Also, the “Pre-emergence Herbicidal Activity DIGSP” value in assay [6] turned out to be 98%. The “Pre-emergence Herbicidal Activity ZEAMX” value in assay [7] was 70%. Also, the “Pre-emergence Herbicidal Activity AMARE” value in [8] is given as 100%. In assay [9], the “growth controlling degree, ZEAMX” value was determined as 70%. In addition, in assay [10], the “Pre-emergence Herbicidal Activity ABUTH” value was 100%. Also, the “Pre-emergence Herbicidal Activity ECHCG” value in assay [11] is 80%. Moreover, the “growth controlling degrees (%) ORYSA” value in assay [12] came to 30%.

With `COc1c(Cl)cc(F)c(-c2nn(C)c(OC(F)F)c2Cl)c1N(C=O)C1CCCC1` [Compound 1-10], the “growth controlling degree, TRZAX” value in assay [1] is given as 40%. Besides, the “growth controlling degree, ABUTH” value in [2] was 100%. Also, the “growth controlling degree, XANST” value in assay [3] is given as 100%. The “Pre-emergence Herbicidal Activity ORYSA” value in [4] amounted to 70%. In assay [5], the “growth controlling degree, DIGSP” value stood at 60%. Besides, the “Pre-emergence Herbicidal Activity DIGSP” value in [6] turned out to be 60%. For the same molecule, the “Pre-emergence Herbicidal Activity ZEAMX” value in assay [7] is listed as 40%. For the same molecule, the “Pre-emergence Herbicidal Activity AMARE” value in assay [8] was found to be 100%. Besides, in [9], the “growth controlling degree, ZEAMX” value is listed as 40%. Further, the “Pre-emergence Herbicidal Activity ABUTH” value in [10] is reported as 100%. The “Pre-emergence Herbicidal Activity ECHCG” value in assay [11] is given as 90%. In addition, in assay [12], the “growth controlling degrees (%) ORYSA” value is 10%.

For `COc1c(Cl)cc(F)c(-c2nn(C)c(OC(F)F)c2Cl)c1N(C(=O)C=C(C)C)C(=O)C=C(C)C` [Compound 1-11], the “growth controlling degree, TRZAX” value in assay [1] turned out to be 20%. Further, in [2], the “growth controlling degree, ABUTH” value amounted to 100%. In addition, the “growth controlling degree, XANST” value in [3] was found to be 30%. For the same molecule, the “Pre-emergence Herbicidal Activity ORYSA” value in [4] was 40%. Further, in assay [5], the “growth controlling degree, DIGSP” value was 40%. The “Pre-emergence Herbicidal Activity DIGSP” value in assay [6] is given as 40%. In addition, the “Pre-emergence Herbicidal Activity ZEAMX” value in assay [7] was determined as 30%. Further, the “Pre-emergence Herbicidal Activity AMARE” value in assay [8] is recorded as 100%. In addition, the “growth controlling degree, ZEAMX” value in [9] is recorded as 30%. For the same molecule, the “Pre-emergence Herbicidal Activity ABUTH” value in [10] was determined as 100%. Besides, the “Pre-emergence Herbicidal Activity ECHCG” value in assay [11] is 70%. In addition, the “growth controlling degrees (%) ORYSA” value in assay [12] came out at 35%.

As for `COc1c(Cl)cc(F)c(-c2nn(C)c(OC(F)F)c2Cl)c1N(C=O)CC(=O)c1ccccc1` [Compound 1-12], the “growth controlling degree, TRZAX” value in assay [1] came to 20%. Further, in assay [2], the “growth controlling degree, ABUTH” value is 100%. Moreover, in assay [3], the “growth controlling degree, XANST” value is listed as 50%. In addition, the “Pre-emergence Herbicidal Activity ORYSA” value in assay [4] is on record as 40%. Also, in assay [5], the “growth controlling degree, DIGSP” value was found to be 30%. Further, the “Pre-emergence Herbicidal Activity DIGSP” value in assay [6] is reported as 30%. The “Pre-emergence Herbicidal Activity ZEAMX” value in assay [7] stood at 10%. The “Pre-emergence Herbicidal Activity AMARE” value in assay [8] is listed as 100%. The “growth controlling degree, ZEAMX” value in assay [9] turned out to be 10%. For the same molecule, the “Pre-emergence Herbicidal Activity ABUTH” value in assay [10] worked out at 100%. For the same molecule, the “Pre-emergence Herbicidal Activity ECHCG” value in [11] came out at 70%. In addition, in [12], the “growth controlling degrees (%) ORYSA” value was determined as 35%.
